Patent US20230330051A1, “METHOD FOR MODULATING WEIGHT” (Yeda Research and Development Co. Ltd., priority 2020, published 2023)

How the values were obtained:
Format in all cases: in vivo, C57BL/6J male mice
[1] = Smoking cessation-associated weight gain (SCWG) model in mice
Excerpt: (§1) Mice. Eight-weeks old C57BL/6J male mice were purchased from Harlan. All mice were maintained in the animal facility of the Weizmann Institute and acclimatized for two weeks before the initiation of experiments. Mice were fed on normal chow (NC) or switched to a high-fat diet (HFD, D12492, 60% kcal from fat, Research Diets)/ choline-deficient diet (CDD, rodent diet with 60 kcal % fat without added Choline) three days prior to the experimental starting point. […] For all experiments, the mice were assigned to each group based on their weight in order to create weight-matched groups and eliminate weight differences at the beginning of the experiments. Two weeks before experimental starting point, antibiotic-treated groups were given a combination of vancomycin (0.5 g/l), ampicillin (1 g/l), neomycin (1 g/l), and metronidazole (1 g/l) ad libitum in their drinking water, referred to as 4-way abx. […] Lean and fat mass was determined by nuclear magnetic resonance (NMR) using Bruker minispec LF50.mq7.5 MHZ live mice analyzer.
Cigarette Smoke Exposure. […] Smoke levels were measured at least twice daily. […]
(§2) Data extraction and compound identification- raw data was extracted, peak-identified and QC processed using Metabolon's hardware and software. […] The cut was then closed with sterile surgical clips and the mice were carefully monitored for any signs of stress, bleeding, pain, or abnormal behavior. […]

[2] = Weight change of naive HFD-consuming mice upon metabolite administration; conditions: naive HFD-consuming 10-week-old C57bl male mice
Excerpt: as §1, with “experiments.” for “experiments. Two weeks before experimental starting point, antibiotic-treated groups were given a combination of vancomycin (0.5 g/l), ampicillin (1 g/l), neomycin (1 g/l), and metronidazole (1 g/l) ad libitum in their drinking water, referred to as 4-way abx.”
as §2
Importantly, the predicted levels of biosynthetic enzymes (PICRUSTt2, P542-PWY) of the choline to betaine pathway and the pathway's measured intermediary levels (Choline to Betaine) were altered in actively smoking mice (FIG. 1D). […]

[3] = Bomb calorimetry of stool (residual caloric content); conditions: three weeks into DMG or PBS administration; inversely correlates with intestinal energy harvest
Procedure: Bomb calorimetry. Mice were transferred to a clean single housed cage, fecal samples collected and stored at −80° C. Before use, samples were dried with FreeZone 4.5-liter cascade benchtop freeze dry system (Labconco) for 24 hours. Gross energy content was measured using a water handling system (6510) and a bomb calorimeter (6200) by Parr Instrument Co. The calorimeter energy equivalent factor was determined using benzoic acid standards.

CN(C)CC(=O)O [DMG, N,N-Dimethylglycine]
SCWG upon DMG supplementation ([1]; antibiotics-treated smoking-cessation HFD-fed mice, DMG via osmotic pumps started prior to cessation, vs vehicle): restored SCWG
Weight change upon DMG administration ([2]; osmotic pumps, 100 mg/kg/day, 21 days, vs vehicle (PBS)): significant weight gain
Residual caloric content in stool [3]: lower residual calories

CC(=O)NCC(=O)O [ACG, N-acetylglycine]
SCWG upon ACG supplementation ([1]; non-antibiotics-treated smoking-cessation mice, HFD-ACG vs HFD): prevented SCWG
Weight gain under ACG consumption ([2]; 7500 mg N-Acetylglycine/kg diet, vs HFD-fed control): significantly lower weight gain
